Values of other authors, collected in patent US20070287651A1, “Bleaching compositions” (The Procter & Gamble Company, priority 2006, published 2007).

Settings: deionized water at 25° C. (definition)

Q: Which solubility in water does the source give for `c1ccc2oc(-c3ccc(-c4nc5ccccc5o4)s3)nc2c1` [Tinopal SOP, benzoxazole,2,2′-(thiophenaldyl)bis] here?
A: Its solubility in water is “lower than 1 gram per liter”.
